Data published in the NIST ThermoML archive (doi:10.1016/j.fluid.2012.09.001).
Several values for one entry are separate records, joined by “and”; a condition that tells them apart may be missing. Identical values can stand only once. Numbers after ± are expanded uncertainties.

Test: molar heat capacity at constant pressure
Details: 101.33 kPa, Liquid, Flow calorimetry

| SMILES | molar heat capacity at constant pressure (268.3 K) | molar heat capacity at constant pressure (278.51 K) | molar heat capacity at constant pressure (288.72 K) | molar heat capacity at constant pressure (298.93 K) | molar heat capacity at constant pressure (309.14 K) | molar heat capacity at constant pressure (319.35 K) | molar heat capacity at constant pressure (329.56 K) | molar heat capacity at constant pressure (339.77 K) | molar heat capacity at constant pressure (260.64 K) | further results |
| --- | --- | --- | --- | --- | --- | --- | --- | --- | --- | --- |
| CCC(Cl)Cl [1,1-dichloropropane] | 148.83 ± 3 J/K/mol and 149.66 ± 3 J/K/mol | 150.33 ± 3 J/K/mol and 150.24 ± 3 J/K/mol and 149.99 ± 3 J/K/mol | 151.82 ± 3 J/K/mol and 151.99 ± 3 J/K/mol and 152.4 ± 3.1 J/K/mol | 152.82 ± 3.1 J/K/mol and 153.65 ± 3.1 J/K/mol | 155.23 ± 3.1 J/K/mol and 154.57 ± 3.1 J/K/mol and 154.15 ± 3.1 J/K/mol | 155.9 ± 3.1 J/K/mol and 157.73 ± 3.2 J/K/mol and 155.56 ± 3.1 J/K/mol | 157.23 ± 3.1 J/K/mol and 157.31 ± 3.1 J/K/mol and 157.64 ± 3.2 J/K/mol | 158.97 ± 3.2 J/K/mol and 159.06 ± 3.2 J/K/mol and 159.31 ± 3.2 J/K/mol | – | molar heat capacity at constant pressure (268.31 K): 149.49 ± 3 J/K/mol |
| CC(Cl)CCl (configuration not stated) [1,2-dichloropropane] | 153.32 ± 3.1 J/K/mol and 152.99 ± 3.1 J/K/mol | 154.15 ± 3.1 J/K/mol and 153.9 ± 3.1 J/K/mol | 155.4 ± 3.1 J/K/mol and 155.15 ± 3.1 J/K/mol | 156.81 ± 3.1 J/K/mol and 156.64 ± 3.1 J/K/mol | 158.06 ± 3.2 J/K/mol and 157.73 ± 3.2 J/K/mol | 159.39 ± 3.2 J/K/mol and 159.22 ± 3.2 J/K/mol | 161.05 ± 3.2 J/K/mol and 161.22 ± 3.2 J/K/mol | 162.8 ± 3.3 J/K/mol | – | – |
| CC(C)(Cl)Cl [2,2-dichloropropane] | 151.41 ± 3 J/K/mol and 151.24 ± 3 J/K/mol and 150.99 ± 3 J/K/mol | – | 153.98 ± 3.1 J/K/mol and 153.82 ± 3.1 J/K/mol and 154.07 ± 3.1 J/K/mol | 155.65 ± 3.1 J/K/mol and 154.98 ± 3.1 J/K/mol | 157.39 ± 3.2 J/K/mol and 157.14 ± 3.1 J/K/mol and 156.98 ± 3.1 J/K/mol | 159.22 ± 3.2 J/K/mol and 158.81 ± 3.2 J/K/mol and 158.89 ± 3.2 J/K/mol | 161.13 ± 3.2 J/K/mol and 160.22 ± 3.2 J/K/mol | – | 150.33 ± 3 J/K/mol and 150.49 ± 3 J/K/mol and 150.24 ± 3 J/K/mol | molar heat capacity at constant pressure (278.52 K): 152.32 ± 3 J/K/mol and 152.24 ± 3 J/K/mol |
| Cl/C=C/Cl [(E)-1,2-dichloroethene] | 112.74 ± 2.3 J/K/mol [middle of 4 runs] | 112.83 ± 2.3 J/K/mol [middle of 4 runs] | 113.41 ± 2.3 J/K/mol [middle of 4 runs] | 113.99 ± 2.3 J/K/mol [middle of 4 runs] | 114.49 ± 2.3 J/K/mol [middle of 4 runs] | – | – | – | – | – |
| Cl/C=C\Cl [(Z)-1,2-dichloroethene] | 110.58 ± 2.2 J/K/mol and 110.75 ± 2.2 J/K/mol | 111.08 ± 2.2 J/K/mol and 111 ± 2.2 J/K/mol | 111.91 ± 2.2 J/K/mol and 111.75 ± 2.2 J/K/mol | 112.99 ± 2.3 J/K/mol and 112.66 ± 2.3 J/K/mol and 112.49 ± 2.3 J/K/mol | 113.91 ± 2.3 J/K/mol and 113.74 ± 2.3 J/K/mol | – | – | – | – | molar heat capacity at constant pressure (258.09 K): 110.33 ± 2.2 J/K/mol and 110.08 ± 2.2 J/K/mol; molar heat capacity at constant pressure (263.2 K): 110.33 ± 2.2 J/K/mol and 110.42 ± 2.2 J/K/mol; molar heat capacity at constant pressure (273.41 K): 111 ± 2.2 J/K/mol; molar heat capacity at constant pressure (283.62 K): 111.41 ± 2.2 J/K/mol and 111.58 ± 2.2 J/K/mol; molar heat capacity at constant pressure (293.83 K): 112.58 ± 2.3 J/K/mol [middle of 4 runs]; molar heat capacity at constant pressure (304.04 K): 113.41 ± 2.3 J/K/mol and 113.49 ± 2.3 J/K/mol |
| ClC(Cl)(Cl)c1ccccc1 [(trichloromethyl)benzene] | – | – | – | – | 220.75 ± 4.4 J/K/mol | 223.83 ± 4.5 J/K/mol | 226.49 ± 4.5 J/K/mol | 228.56 ± 4.6 J/K/mol | 209.61 ± 4.2 J/K/mol and 209.36 ± 4.2 J/K/mol and 209.11 ± 4.2 J/K/mol | molar heat capacity at constant pressure (265.75 K): 210.94 ± 4.2 J/K/mol and 210.44 ± 4.2 J/K/mol and 210.27 ± 4.2 J/K/mol; molar heat capacity at constant pressure (270.85 K): 211.44 ± 4.2 J/K/mol and 211.35 ± 4.2 J/K/mol and 211.19 ± 4.2 J/K/mol; molar heat capacity at constant pressure (275.96 K): 212.52 ± 4.3 J/K/mol and 212.77 ± 4.3 J/K/mol; molar heat capacity at constant pressure (281.06 K): 214.18 ± 4.3 J/K/mol and 213.93 ± 4.3 J/K/mol; molar heat capacity at constant pressure (286.17 K): 215.59 ± 4.3 J/K/mol and 215.34 ± 4.3 J/K/mol; molar heat capacity at constant pressure (291.27 K): 217.09 ± 4.3 J/K/mol and 217.01 ± 4.3 J/K/mol and 216.92 ± 4.3 J/K/mol; molar heat capacity at constant pressure (296.38 K): 217.76 ± 4.4 J/K/mol and 217.92 ± 4.4 J/K/mol and 218.01 ± 4.4 J/K/mol; molar heat capacity at constant pressure (301.48 K): 219.34 ± 4.4 J/K/mol and 219.17 ± 4.4 J/K/mol and 219.25 ± 4.4 J/K/mol; molar heat capacity at constant pressure (349.98 K): 230.89 ± 4.6 J/K/mol |
| ClC=C(Cl)Cl [trichloroethene] | – | – | – | – | 129.21 ± 2.6 J/K/mol and 129.04 ± 2.6 J/K/mol and 130.29 ± 2.6 J/K/mol | 130.29 ± 2.6 J/K/mol and 131.12 ± 2.6 J/K/mol | 130.95 ± 2.6 J/K/mol and 131.12 ± 2.6 J/K/mol | – | 126.71 ± 2.5 J/K/mol and 126.63 ± 2.5 J/K/mol | molar heat capacity at constant pressure (265.75 K): 126.71 ± 2.5 J/K/mol and 126.8 ± 2.5 J/K/mol and 126.96 ± 2.5 J/K/mol; molar heat capacity at constant pressure (270.85 K): 126.96 ± 2.5 J/K/mol [middle of 4 runs]; molar heat capacity at constant pressure (275.96 K): 127.13 ± 2.5 J/K/mol [middle of 4 runs]; molar heat capacity at constant pressure (281.06 K): 127.38 ± 2.5 J/K/mol and 127.46 ± 2.6 J/K/mol and 127.79 ± 2.6 J/K/mol; molar heat capacity at constant pressure (286.17 K): 127.96 ± 2.6 J/K/mol and 127.88 ± 2.6 J/K/mol and 128.38 ± 2.6 J/K/mol; molar heat capacity at constant pressure (291.27 K): 128.38 ± 2.6 J/K/mol [middle of 4 runs]; molar heat capacity at constant pressure (296.38 K): 128.54 ± 2.6 J/K/mol [middle of 4 runs]; molar heat capacity at constant pressure (301.48 K): 128.96 ± 2.6 J/K/mol [middle of 4 runs] |
